Assay results from patent publication US20240101557A1, “FUSED TRICYCLIC COMPOUNDS AS INHIBITORS OF KRAS G12V MUTANTS” (INCYTE CORPORATION, priority 2022, published 2024).

What was measured:
[1] = target: KRAS G12V mutant (Homo sapiens, UniProt P01116, G12V); test: GDP-GTP exchange assay (bodipy-GDP for GppNHp, with SOS1), KRAS G12V; type: biochemical; details: bodipy-loaded KRAS G12V 2.5 nM, 3 h incubation after GppNHp-SOS1; read-out: G12V_ exchange
Method: (§1) The inhibitor potency of the exemplified compounds was determined in a fluorescence based guanine nucleotide exchange assay, which measures the exchange of bodipy-GDP (fluorescently labeled GDP) for GppNHp (Non-hydrolyzable GTP analog) to generate the active state of KRAS in the presence of SOS1 (guanine nucleotide exchange factor). Inhibitors were serially diluted in DMSO and a volume of 0.1 μL was transferred to the wells of a black low volume 384-well plate. 5 μL/well volume of bodipy-loaded KRAS G12D diluted to 2.5 nM in assay buffer (25 mM Hepes pH 7.5, 50 mM NaCl, 10 mM MgCl2 and 0.01% Brij-35) was added to the plate and pre-incubated with inhibitor for 4 h at ambient temperature. Appropriate controls (enzyme with no inhibitor or with a G12D inhibitor) were included on the plate. The exchange was initiated by the addition of a 5 μL/well volume containing 1 mM GppNHp and 300 nM SOS1 in assay buffer. The 10 μL/well reaction concentration of the bodipy-loaded KRAS G12D, GppNHp, and SOS1 were 2.5 nM, 500 uM, and 150 nM, respectively. The reaction plates were incubated at ambient temperature for 2 h, a time estimated for complete GDP-GTP exchange in the absence of inhibitor. For the KRAS G12V mutant, similar guanine nucleotide exchange assays were used with 2.5 nM as final concentration for the bodipy loaded KRAS proteins and 3 h incubation after adding GppNHp-SOS1 mixture. A cyclic peptide described to selectively bind G12D mutant (Sakamoto et al., BBRC 484.3 (2017), 605-611) or internal compounds with confirmed binding were used as positive controls in the assay plates. Fluorescence intensities were measured on a PheraStar plate reader instrument (BMG Labtech) with excitation at 485 nm and emission at 520 nm.
(§2) Either GraphPad prism or Genedata Screener SmartFit was used to analyze the data. The IC50 values were derived by fitting the data to a four parameter logistic equation producing a sigmoidal dose-response curve with a variable Hill coefficient.
(§3) The symbol “†” indicates IC50≤100 nM, “††” indicates IC50>100 nM but ≤1 μM; and “†††” indicates IC50 is >1 μM but ≤5 μM, “††††” indicates IC50 is >5 μM but ≤10 μM. “NA” indicates IC50 not available.

[2] = test system: KRAS G12V; test: G12V_cell (cellular assay on KRAS G12V cells, method not named in Table 1); type: cell-based; details: cell line and readout not stated
Method: MIA PaCa-2 (KRAS G12C; ATCC® CRL-1420), NCI-H358 (KRAS G12C; ATCC® CRL-5807), A427 (KRAS G12D; ATCC® HTB53), HPAFII (KRAS G12D; ATCC® CRL-1997), YAPC (KRAS G12V; DSMZ ACC382), SW480 (KRAS G12V; ATCC® CRL-228) and NCI-H838 (KRAS WT; ATCC® CRL-5844) cells are cultured in RPMI 1640 media supplemented with 10% FBS (Gibco/Life Technologies). Eight hundred cells per well in RPMI 1640 media supplemented with 2% FBS are seeded into white, clear bottomed 384-well Costar tissue culture plates containing 50 nL dots of test compounds (final concentration is a 1:500 dilution, with a final concentration in 0.2% DMSO). Plates are incubated for 3 days at […], 5% CO2. At the end of the assay, 25 ul/well of CellTiter-Glo reagent (Promega) is added. Luminescence is read after 15 min. with a PHERAstar (BMG). Data are analyzed in Genedata Screener using SmartFit for IC50 values.
MIA PaCa-2 (KRAS G12C; ATCC® CRL-1420), NCI-H358 (KRAS G12C; ATCC® CRL-5807), A427 (KRAS G12D; ATCC® HTB53), HPAFII (KRAS G12D; ATCC® CRL-1997), YAPC (KRAS G12V; DSMZ ACC382), SW480 (KRAS G12V; ATCC® CRL-228) and NCI-H838 (KRAS WT; ATCC® CRL-5844) cells are purchased from ATCC and maintained in RPMI 1640 media supplemented with 10% FBS (Gibco/Life Technologies). The cells are plated at 5000 cells per well (8 uL) into Greiner 384-well low volume, flat-bottom, and tissue culture treated white plates and incubated overnight at […], 5% CO2. The next morning, test compound stock solutions are diluted in media at 3× the final concentration and 4 uL are added to the cells, with a final concentration of 0.1% of DMSO. The cells are incubated with the test compounds for 4 h (G12C and G12V) or 2 hrs (G12D) at 37° C., 5% CO2. Four uL of 4× lysis buffer with blocking reagent (Cisbio) are added to each well and plates are rotated gently (300 rpm) for 30 min. at r.t. Four uL per well of Cisbio anti Phospho-ERK ½ d2 is mixed with anti Phospho-ERK ½ Cryptate (1:1), and added to each well, incubated overnight in the dark at r.t. Plates are read on the Pherastar plate reader at 665 nm and 620 nm wavelengths. Data are analyzed in Genedata Screener using SmartFit for IC50 values.

[3] = target: KRAS G12D (Homo sapiens, UniProt P01116, G12D); test: GDP-GTP exchange assay (bodipy-GDP for GppNHp, with SOS1), KRAS G12D; type: biochemical; details: bodipy-loaded KRAS G12D 2.5 nM, 4 h pre-incubation, 2 h after GppNHp/SOS1; read-out: G12D_exchange
KRAS G12D, sequence (P01116 1-188 isoform P01116-2 G12D): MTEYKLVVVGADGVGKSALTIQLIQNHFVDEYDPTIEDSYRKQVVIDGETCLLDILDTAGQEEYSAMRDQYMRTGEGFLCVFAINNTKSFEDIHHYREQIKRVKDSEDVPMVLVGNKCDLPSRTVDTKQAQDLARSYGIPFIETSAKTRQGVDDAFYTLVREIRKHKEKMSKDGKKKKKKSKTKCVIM
Method: as §1, §2, §3

Measured: IC50

KRAS G12V mutant, sequence (P01116 1-188 isoform P01116-2 G12V): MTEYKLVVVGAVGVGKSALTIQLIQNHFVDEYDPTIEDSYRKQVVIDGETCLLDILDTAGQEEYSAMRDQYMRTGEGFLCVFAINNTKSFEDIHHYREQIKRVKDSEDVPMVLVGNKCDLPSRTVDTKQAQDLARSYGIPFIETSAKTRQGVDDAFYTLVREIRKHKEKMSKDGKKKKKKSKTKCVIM

CC(=O)N1CCC[C@@H]1c1cc2c(O[C@@H](C)[C@@H]3CCCN3C)nc3c(F)c(-c4cccc5ncc(F)cc45)c(CCC#N)cc3c2n1[C@H]1[C@H]2CN[C@@H]1C2 [Example 5, 3-(2-((R)-1-Acetylpyrrolidin-2-yl)-1-((1R,4R,5S)-2-azabicyclo[2.1.1]hexan-5-yl)-6-fluoro-7-(3-fluoroquinolin-5-yl)-4-((S)-1-((S)-1-methylpyrrolidin-2-yl)ethoxy)-1H-pyrrolo[3,2-c]quinolin-8-yl)propanenitrile]
≤ 0.1 µM: all assays above

CC(=O)N1CCC[C@@H]1c1c(Cl)c2c(O[C@@H](C)[C@@H]3CCCN3C)nc3c(F)c(-c4cccc(Cl)c4Cl)c(CCC#N)cc3c2n1[C@H]1[C@H]2CN[C@@H]1C2 [Example 3, 3-(2-((R)-1-Acetylpyrrolidin-2-yl)-1-((1R,4R,5S)-2-azabicyclo[2.1.1]hexan-5-yl)-3-chloro-7-(2,3-dichlorophenyl)-6-fluoro-4-((S)-1-((S)-1-methylpyrrolidin-2-yl)ethoxy)-1H-pyrrolo[3,2-c]quinolin-8-yl)propanenitrile]
≤ 0.1 µM: all assays above

COC(=O)N1C[C@@H](Oc2ccccn2)C[C@@H]1c1cc2c(O[C@@H](C)[C@@H]3CCCN3C)nc3c(F)c(-c4cccc(Cl)c4Cl)c(CCC#N)cc3c2n1[C@H]1[C@H]2CN[C@@H]1C2 [Example 6, Methyl (2R,4S)-2-(1-((1R,4R,5S)-2-azabicyclo[2.1.1]hexan-5-yl)-8-(2-cyanoethyl)-7-(2,3-dichlorophenyl)-6-fluoro-4-((S)-1-((S)-1-methylpyrrolidin-2-yl)ethoxy)-1H-pyrrolo[3,2-c]quinolin-2-yl)-4-(pyridin-2-yloxy)pyrrolidine-1-carboxylate]
≤ 0.1 µM: all assays above

CC(=O)N1CCC[C@@H]1c1cc2c(O[C@@H](C)[C@@H]3CCCN3C)nc3c(F)c(-c4cccc5c4C(C#N)CCC5)c(C)cc3c2n1[C@H]1[C@H]2CN[C@@H]1C2 (stereo partly drawn) [Example 4, 8-(2-((R)-1-Acetylpyrrolidin-2-yl)-1-((1R,4R,5S)-2-azabicyclo[2.1.1]hexan-5-yl)-6-fluoro-8-methyl-4-((S)-1-((S)-1-methylpyrrolidin-2-yl)ethoxy)-1H-pyrrolo[3,2-c]quinolin-7-yl)-1,2,3,4-tetrahydronaphthalene-1-carbonitrile]
≤ 0.1 µM: all assays above

C[C@H](Oc1nc2c(F)c(-c3cccc(Cl)c3Cl)c(CCC#N)cc2c2c1cc([C@H]1C[C@H](OC(F)F)CN1C(=O)C1CC1)n2[C@H]1[C@H]2CN[C@@H]1C2)[C@@H]1CCCN1C [Example 8, 3-(1-((1R,4R,5S)-2-Azabicyclo[2.1.1]hexan-5-yl)-2-((2R,4S)-1-(cyclopropanecarbonyl)-4-(difluoromethoxy)pyrrolidin-2-yl)-7-(2,3-dichlorophenyl)-6-fluoro-4-((S)-1-((S)-1-methylpyrrolidin-2-yl)ethoxy)-1H-pyrrolo[3,2-c]quinolin-8-yl)propanenitrile]
≤ 0.1 µM: all assays above

C[C@H](Oc1nc2c(F)c(-c3cccc4ccc(F)cc34)c(CCC#N)cc2c2c1cc(-c1cnn(C)c1C(=O)N(C)C)n2[C@H]1[C@H]2CN[C@@H]1C2)[C@@H]1CCCN1C [Example 2, 4-(1-((1R,4R,5S)-2-Azabicyclo[2.1.1]hexan-5-yl)-8-(2-cyanoethyl)-6-fluoro-7-(7-fluoronaphthalen-1-yl)-4-((S)-1-((S)-1-methylpyrrolidin-2-yl)ethoxy)-1H-pyrrolo[3,2-c]quinolin-2-yl)-N,N,1-trimethyl-1H-pyrazole-5-carboxamide]
≤ 0.1 µM: all assays above

CC(=O)N1[C@@H](c2cc3c(O[C@@H](C)[C@@H]4CCCN4C)nc4c(F)c(-c5cccc6c5C(C#N)CCC6)c(C)cc4c3n2[C@H]2[C@H]3CN[C@@H]2C3)C[C@@H]2C[C@@H]21 (stereo partly drawn) [Example 7, 8-(2-((1S,3R,5S)-2-Acetyl-2-azabicyclo[3.1.0]hexan-3-yl)-1-((1R,4R,5S)-2-azabicyclo[2.1.1]hexan-5-yl)-6-fluoro-8-methyl-4-((S)-1-((S)-1-methylpyrrolidin-2-yl)ethoxy)-1H-pyrrolo[3,2-c]quinolin-7-yl)-1,2,3,4-tetrahydronaphthalene-1-carbonitrile]
≤ 0.1 µM: all assays above

CC(=O)N1CCC[C@@H]1c1cc2c(O[C@@H](C)[C@@H]3CCCN3C)nc3c(F)c(-c4cccc(Cl)c4Cl)c(CCC#N)cc3c2n1[C@H]1[C@H]2CN[C@@H]1C2 [Example 1, 3-(2-((R)-1-Acetylpyrrolidin-2-yl)-1-((1R,4R,5S)-2-azabicyclo[2.1.1]hexan-5-yl)-7-(2,3-dichlorophenyl)-6-fluoro-4-((S)-1-((S)-1-methylpyrrolidin-2-yl)ethoxy)-1H-pyrrolo[3,2-c]quinolin-8-yl)propanenitrile]
≤ 0.1 µM: all assays above

C[C@H](Oc1nc2c(F)c(-c3cccc(Cl)c3Cl)c(CCC#N)cc2c2c1cc([C@H]1C[C@H](F)CN1C(=O)C1CC1)n2[C@H]1[C@H]2CN[C@@H]1C2)[C@@H]1CCCN1C [Example 10, 3-(1-((1R,4R,5S)-2-Azabicyclo[2.1.1]hexan-5-yl)-2-((2R,4S)-1-(cyclopropanecarbonyl)-4-fluoropyrrolidin-2-yl)-7-(2,3-dichlorophenyl)-6-fluoro-4-((S)-1-((S)-1-methylpyrrolidin-2-yl)ethoxy)-1H-pyrrolo[3,2-c]quinolin-8-yl)propanenitrile]
≤ 0.1 µM: all assays above
